ChEMBL document CHEMBL1201862, “PubChem BioAssay data set” (2004)
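48-hour exposure; five concentrations; linearly interpolated endpoints. The concentration for 50% growth inhibition is given as GI50.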 Active and inactive are the calls of the source. Cut-off read from the data, not from the text of the source: active = GI50 up to about 1.1 µM and inactive = higher.

What was measured:
Assay in all cases: NCI tumour cell line growth inhibition, 48 h
MDA-N = test system: MDA-N
MDA-MB-231 = test system: MDA-MB-231
A498 = test system: A498
NCI-H460 = test system: NCI-H460
SK-MEL-2 = test system: SK-MEL-2
SF-268 = test system: SF-268
Malme-3M = test system: Malme-3M
OVCAR-8 = test system: OVCAR-8
UACC-62 = test system: UACC-62
CAKI-1 = test system: CAKI-1
SNB-75 = test system: SNB-75
NCI-H23 = test system: NCI-H23
SF-539 = test system: SF-539
MCF7 = test system: MCF7
U-251 = test system: U-251
TK-10 = test system: TK-10
IGROV-1 = test system: IGROV-1
HCT-15 = test system: HCT-15
SW-620 = test system: SW-620

Compound | GI50 (MDA-N) | GI50 (MDA-MB-231) | GI50 (A498) | GI50 (NCI-H460) | GI50 (SK-MEL-2) | GI50 (SF-268) | GI50 (Malme-3M) | GI50 (OVCAR-8) | GI50 (UACC-62) | GI50 (CAKI-1) | GI50 (SNB-75) | GI50 (NCI-H23) | GI50 (SF-539) | GI50 (MCF7) | GI50 (U-251) | GI50 (TK-10) | GI50 (IGROV-1) | GI50 (HCT-15) | GI50 (SW-620)
CCN(CC)CC1CCCCN1CC(=O)N1c2ccc(Br)cc2C(=O)Nc2cccnc21 (stereo unspecified) | > 100 µM (inactive) | > 100 µM (inactive) | > 100 µM (inactive) | > 100 µM (inactive) | > 100 µM (inactive) | > 100 µM (inactive) | > 100 µM (inactive) | > 100 µM (inactive) | > 100 µM (inactive) | > 100 µM (inactive) | 12.3 µM (inactive) | > 100 µM (inactive) | > 100 µM (inactive) | > 100 µM (inactive) | > 100 µM (inactive) | > 100 µM (inactive) | > 100 µM (inactive) | > 100 µM | 
CNC(=O)N(C)C(=O)c1ccccc1C(=O)N(C)C(=O)NC | > 10 µM (inactive) | > 10 µM (inactive) | > 10 µM (inactive) | > 10 µM (inactive) | > 10 µM (inactive) | > 10 µM (inactive) | > 10 µM (inactive) | > 10 µM (inactive) | > 10 µM (inactive) | > 10 µM (inactive) | > 10 µM (inactive) | > 10 µM (inactive) | > 10 µM (inactive) | > 10 µM (inactive) | > 10 µM (inactive) | > 10 µM (inactive) | > 10 µM (inactive) | > 10 µM | > 10 µM (inactive)
Nc1c(C(=O)O)nnc2ccc(Cl)cc12 | > 100 µM (inactive) | > 100 µM (inactive) | 58.6 µM (inactive) | > 100 µM (inactive) | > 100 µM (inactive) | > 100 µM (inactive) | > 100 µM (inactive) | > 100 µM (inactive) | > 100 µM (inactive) | > 100 µM (inactive) | > 100 µM (inactive) | > 100 µM (inactive) | > 100 µM (inactive) | > 100 µM (inactive) | > 100 µM (inactive) | > 100 µM (inactive) | > 100 µM (inactive) | > 100 µM | > 100 µM (inactive)
NC(=O)NC(=O)c1cccc(NC(=O)CF)c1 | > 100 µM (inactive) | > 100 µM (inactive) | > 100 µM (inactive) | > 100 µM (inactive) | > 100 µM (inactive) | > 100 µM (inactive) | > 100 µM (inactive) | > 100 µM (inactive) | > 100 µM (inactive) | > 100 µM (inactive) | > 100 µM (inactive) | > 100 µM (inactive) | > 100 µM (inactive) | > 100 µM (inactive) | > 100 µM (inactive) | > 100 µM (inactive) | > 100 µM (inactive) | > 100 µM | > 100 µM (inactive)
Clc1cc(C(c2cc(Cl)sc2Cl)c2cc(Cl)sc2Cl)c(Cl)s1 | > 100 µM (inactive) | > 100 µM (inactive) | > 100 µM (inactive) | > 100 µM (inactive) | > 100 µM (inactive) | > 100 µM (inactive) | 74.1 µM (inactive) | > 100 µM (inactive) | > 100 µM (inactive) | > 100 µM (inactive) | > 100 µM (inactive) | > 100 µM (inactive) | > 100 µM (inactive) | > 100 µM (inactive) | > 100 µM (inactive) | > 100 µM (inactive) | > 100 µM (inactive) | > 100 µM | > 100 µM (inactive)
O=C(O)c1ccc(NNc2cc(=O)[nH]c(=O)[nH]2)cc1 | > 100 µM (inactive) | > 100 µM (inactive) | > 100 µM (inactive) | > 100 µM (inactive) | > 100 µM (inactive) | > 100 µM (inactive) | > 100 µM (inactive) | > 100 µM (inactive) | > 100 µM (inactive) | > 10 µM (inactive) | 96.8 µM (inactive) | > 100 µM (inactive) | > 100 µM (inactive) | > 100 µM (inactive) | > 100 µM (inactive) | > 100 µM (inactive) | > 100 µM (inactive) | > 100 µM | > 100 µM (inactive)
COc1ccc(/C=C2\C=Cc3ccccc32)cc1OC | > 100 µM (inactive) | 78.3 µM (inactive) | 39.4 µM (inactive) | > 100 µM (inactive) | 72.1 µM (inactive) | > 100 µM (inactive) | > 100 µM (inactive) | > 100 µM (inactive) | 23.1 µM (inactive) | > 100 µM (inactive) | 20.6 µM (inactive) | 24 µM (inactive) | > 100 µM (inactive) | > 100 µM (inactive) | 76 µM (inactive) | > 100 µM (inactive) | 73.8 µM (inactive) | > 100 µM | > 100 µM (inactive)
Cc1ccc(O)c(C2=CC3=NNC(=O)C3C(c3cccc(Br)c3)C2)c1 (stereo unspecified) | 23.7 µM (inactive) | 20 µM (inactive) | 42.9 µM (inactive) | 22.4 µM (inactive) | 27.4 µM (inactive) | 23 µM (inactive) | 25.9 µM (inactive) | 20.8 µM (inactive) | 19.6 µM (inactive) | 23 µM (inactive) | 22.6 µM (inactive) | 23.7 µM (inactive) | 29.4 µM (inactive) | 11.4 µM (inactive) | 21.7 µM (inactive) | 18.6 µM (inactive) | 23.1 µM (inactive) | 20.9 µM | 27.7 µM (inactive)
O=C(/C=C/c1ccc(O)c(O)c1)OCCCOC(=O)/C=C/c1ccc(O)c(O)c1 | 17.5 µM (inactive) | 62.1 µM (inactive) | 52.5 µM (inactive) | 21.8 µM (inactive) | 41.8 µM (inactive) | 23.9 µM (inactive) | 43.3 µM (inactive) | 22.8 µM (inactive) | 16.6 µM (inactive) | 34.4 µM (inactive) | 47.2 µM (inactive) | 20.9 µM (inactive) | 41.9 µM (inactive) | 30.6 µM (inactive) | 23.5 µM (inactive) | 29.3 µM (inactive) | 13.3 µM (inactive) | 14 µM | 11.4 µM (inactive)
CCOC1OCCCC1Br (stereo unspecified) | > 100 µM (inactive) | > 100 µM (inactive) | > 100 µM (inactive) | > 100 µM (inactive) | > 100 µM (inactive) | > 100 µM (inactive) | > 100 µM (inactive) | > 100 µM (inactive) | 72.1 µM (inactive) | > 100 µM (inactive) | > 100 µM (inactive) | > 100 µM (inactive) | > 100 µM (inactive) | > 100 µM (inactive) |  | > 100 µM (inactive) | > 100 µM (inactive) | > 100 µM | > 100 µM (inactive)
COC(=O)NC1(NC(=O)OC)NC(=O)c2ccccc2N1 | 64.1 µM (inactive) | > 100 µM (inactive) | > 100 µM (inactive) | > 100 µM (inactive) | 0.0145 µM (active) | > 100 µM (inactive) | > 100 µM (inactive) | > 100 µM (inactive) | > 100 µM (inactive) | > 100 µM (inactive) | 36 µM (inactive) | > 100 µM (inactive) | > 100 µM (inactive) | > 100 µM (inactive) |  | 96.2 µM (inactive) | > 100 µM (inactive) | 63.5 µM | > 100 µM (inactive)
